Source: patent US20250332178A1, “METHODS OF TREATING MYCOBACTERIAL INFECTIONS USING TETRACYCLINE COMPOUNDS” (priority 2018, published 2025)
Values after ≈ are worked out from the molar mass of the structure shown.

What was measured:
[1] = test system: M. simiae; test: MIC (CLSI broth dilution), slow-growing NTM isolates; assay type: cell-based
[2] = test system: Mycobacterium abscessus; test: MIC by broth microdilution in CAMHB, clinical isolates; assay type: cell-based
[3] = test system: Mycobacterium fortuitum; test: as above; assay type: cell-based
[4] = test system: Mycobacterium chelonae; test: as above; assay type: cell-based
[5] = test system: M. fortuitum group; test: MIC (CLSI broth dilution), RGM isolates; assay type: cell-based
[6] = test system: M. immunogenum group; test: MIC (CLSI broth dilution), RGM isolates; assay type: cell-based; details: M. immunogenum
[7] = test system: M. smegmatis group; test: MIC (CLSI broth dilution), RGM isolates; assay type: cell-based
[8] = test system: M. chelonae; test: MIC (CLSI broth dilution), RGM isolates; assay type: cell-based
[9] = test system: M. abscessus complex; test: MIC (CLSI broth dilution), RGM isolates; assay type: cell-based
[10] = test system: M. mucogenium group; test: MIC (CLSI broth dilution), RGM isolates; assay type: cell-based
[11] = test system: rapid-growing mycobacteria (RGM) isolates; test: MIC (CLSI broth dilution), all RGM isolates; assay type: cell-based, nontuberculous mycobacteria; details: all 50 RGM isolates
[12] = 24 clinical isolates (tigecycline: subset N=14)

With `C[C@H]1c2cccc(O)c2C(=O)C2=C(O)[C@]3(O)C(=O)C(C(N)=O)=C(O)[C@@H](N(C)C)[C@@H]3[C@@H](O)[C@@H]21` [Doxycycline, doxycycline] the MIC ([1]; isolate 13, Other) was greater than 16 µg/mL, the MIC ([1]; isolate 14, Other) was greater than 16 µg/mL and the MIC ([1]; isolate 15, Other) was greater than 16 µg/mL. For the same molecule, the MIC50 [2, 12] was greater than 64 µg/mL, the MIC90 [2, 12] was greater than 64 µg/mL and the MIC ([2]; isolate No. 1, BB2) was greater than 64 µg/mL. The MIC ([2]; isolate No. 2, BB4) was 2 µg/mL (≈ 4.5 µM), the MIC ([2]; isolate No. 3, 5922) was 16 µg/mL (≈ 36 µM) and the MIC ([2]; isolate No. 4, BB3) was 4 µg/mL (≈ 9 µM). It also gave an MIC ([2]; isolate No. 5, BB6) of 16 µg/mL (≈ 36 µM), an MIC ([2]; isolate No. 6, 5908) greater than 64 µg/mL and an MIC ([2]; isolate No. 7, BB7) of 0.25 µg/mL (≈ 0.563 µM). The MIC ([2]; isolate No. 8, 6031) was 2 µg/mL (≈ 4.5 µM), the MIC ([2]; isolate No. 9, 5785) was 2 µg/mL (≈ 4.5 µM) and the MIC ([2]; isolate No. 10, BB8) was greater than 64 µg/mL. For the same molecule, the MIC ([2]; isolate No. 11, 6111) was greater than 64 µg/mL, the MIC ([2]; isolate No. 12, 6005) was greater than 64 µg/mL and the MIC ([2]; isolate No. 13, 5605) was greater than 64 µg/mL. The MIC ([2]; isolate No. 14, 5931) was 16 µg/mL (≈ 36 µM), the MIC ([2]; isolate No. 15, BB1) was greater than 64 µg/mL and the MIC ([2]; isolate No. 16, BB5) was greater than 64 µg/mL. For the same molecule, the MIC ([2]; isolate No. 17, 5812) was greater than 64 µg/mL, the MIC ([2]; isolate No. 18, 5901) was greater than 64 µg/mL and the MIC ([2]; isolate No. 19, 5960) was 8 µg/mL (≈ 18 µM). For the same molecule, the MIC ([2]; isolate No. 20, 6142) was greater than 64 µg/mL, the MIC ([2]; isolate No. 21, 5922) was 32 µg/mL (≈ 72 µM) and the MIC ([2]; isolate No. 22, LT 949) was greater than 64 µg/mL. It also gave an MIC ([2]; isolate No. 23, 6025) greater than 64 µg/mL, an MIC ([2]; isolate No. 24, 6153) greater than 64 µg/mL and an MIC50 ([3]; 20 clinical isolates) of 8 µg/mL (≈ 18 µM). The MIC90 ([3]; 20 clinical isolates) was 64 µg/mL (≈ 144 µM), the MIC ([3]; isolate No. 1, 3349) was 16 µg/mL (≈ 36 µM) and the MIC ([3]; isolate No. 2, 3499) was 0.06 µg/mL (≈ 0.135 µM). For the same molecule, the MIC ([3]; isolate No. 3, 2797) was greater than 64 µg/mL, the MIC ([3]; isolate No. 4, 32) was 0.125 µg/mL (≈ 0.281 µM) and the MIC ([3]; isolate No. 5, 33) was 0.125 µg/mL (≈ 0.281 µM). It also gave an MIC ([3]; isolate No. 6, 3489) of 8 µg/mL (≈ 18 µM), an MIC ([3]; isolate No. 7, 3491) of less than 0.06 µg/mL and an MIC ([3]; isolate No. 8, 54) of less than 0.06 µg/mL. For the same molecule, the MIC ([3]; isolate No. 9, 38) was 0.5 µg/mL (≈ 1.13 µM), the MIC ([3]; isolate No. 10, 36) was 0.125 µg/mL (≈ 0.281 µM) and the MIC ([3]; isolate No. 11, 3480) was 16 µg/mL (≈ 36 µM). The MIC ([3]; isolate No. 12, 3126) was 16 µg/mL (≈ 36 µM), the MIC ([3]; isolate No. 13, 3579) was 16 µg/mL (≈ 36 µM) and the MIC ([3]; isolate No. 14, 7484) was 64 µg/mL (≈ 144 µM). It also gave an MIC ([3]; isolate No. 15, 3488) of 32 µg/mL (≈ 72 µM), an MIC ([3]; isolate No. 16, 3276) of 0.25 µg/mL (≈ 0.563 µM) and an MIC ([3]; isolate No. 17, 3442) of 0.25 µg/mL (≈ 0.563 µM). It also gave an MIC ([3]; isolate No. 18, 3316) of 32 µg/mL (≈ 72 µM), an MIC ([3]; isolate No. 19, 3490) of 16 µg/mL (≈ 36 µM) and an MIC ([3]; isolate No. 20, 2491) greater than 64 µg/mL. It also gave an MIC50 ([4]; 22 clinical isolates) of 32 µg/mL (≈ 72 µM), an MIC90 ([4]; 22 clinical isolates) of 64 µg/mL (≈ 144 µM) and an MIC ([4]; isolate No. 1, MC 7323) of 64 µg/mL (≈ 144 µM). It also gave an MIC ([4]; isolate No. 2, MC 7534) of 32 µg/mL (≈ 72 µM), an MIC ([4]; isolate No. 3, MC 7368) of 64 µg/mL (≈ 144 µM) and an MIC ([4]; isolate No. 4, MC 7514) of 32 µg/mL (≈ 72 µM). It also gave an MIC ([4]; isolate No. 5, MC 7584) of 64 µg/mL (≈ 144 µM), an MIC ([4]; isolate No. 6, MC 7192) of 16 µg/mL (≈ 36 µM) and an MIC ([4]; isolate No. 7, MC 7466) of 32 µg/mL (≈ 72 µM). For the same molecule, the MIC ([4]; isolate No. 8, MC 7533) was 64 µg/mL (≈ 144 µM), the MIC ([4]; isolate No. 9, MC 7579) was 16 µg/mL (≈ 36 µM) and the MIC ([4]; isolate No. 10, MC 7614) was 64 µg/mL (≈ 144 µM). For the same molecule, the MIC ([4]; isolate No. 11, MC 7414) was 32 µg/mL (≈ 72 µM), the MIC ([4]; isolate No. 12, MC 7313) was 32 µg/mL (≈ 72 µM) and the MIC ([4]; isolate No. 13, MC 7281) was 64 µg/mL (≈ 144 µM). For the same molecule, the MIC ([4]; isolate No. 14, MC 7328) was 16 µg/mL (≈ 36 µM), the MIC ([4]; isolate No. 15, MC 7294) was 32 µg/mL (≈ 72 µM) and the MIC ([4]; isolate No. 16, MC 14-S-03) was 64 µg/mL (≈ 144 µM). For the same molecule, the MIC ([4]; isolate No. 17, MC 14-S-04) was 32 µg/mL (≈ 72 µM), the MIC ([4]; isolate No. 18, MC 14-S-05) was 32 µg/mL (≈ 72 µM) and the MIC ([4]; isolate No. 19, MC 14-S-06) was 64 µg/mL (≈ 144 µM). It also gave an MIC ([4]; isolate No. 20, MC 14-S-07) of 32 µg/mL (≈ 72 µM), an MIC ([4]; isolate No. 21, MC 35757) of 32 µg/mL (≈ 72 µM) and an MIC ([4]; isolate No. 22, MC 7302) of 64 µg/mL (≈ 144 µM). The MIC ([5]; isolate 23, M. fortuitum group, M. fortuitum) was no more than 0.12 µg/mL, the MIC ([5]; isolate 24, M. fortuitum group, M. fortuitum) was 0.25 µg/mL (≈ 0.563 µM) and the MIC ([5]; isolate 25, M. fortuitum group, M. fortuitum) was greater than 8 µg/mL. For the same molecule, the MIC ([5]; isolate 26, M. fortuitum group, M. porcinum) was 4 µg/mL (≈ 9 µM), the MIC ([5]; isolate 27, M. fortuitum group, M. porcinum) was 8 µg/mL (≈ 18 µM) and the MIC ([5]; isolate 28, M. fortuitum group, M. porcinum/M. boenickei) was 2 µg/mL (≈ 4.5 µM). The MIC ([5]; isolate 29, M. fortuitum group, M. porcinum/M. boenickei) was greater than 8 µg/mL, the MIC ([5]; isolate 30, M. fortuitum group, M. porcinum/M. boenickei) was greater than 8 µg/mL and the MIC ([5]; isolate 31, M. fortuitum group, M. senegalense) was no more than 0.12 µg/mL. The MIC ([5]; isolate 32, M. fortuitum group, M. senegalense) was no more than 0.12 µg/mL, the MIC ([5]; isolate 33, M. fortuitum group, M. senegalense) was no more than 0.12 µg/mL and the MIC ([5]; isolate 34, M. fortuitum group, M. senegalense) was no more than 0.12 µg/mL. The MIC ([6]; isolate 35, M. immunogenum group) was greater than 8 µg/mL, the MIC ([6]; isolate 36, M. immunogenum group) was 1 µg/mL (≈ 2.25 µM) and the MIC ([6]; isolate 37, M. immunogenum group) was greater than 8 µg/mL. The MIC ([6]; isolate 38, M. immunogenum group) was greater than 8 µg/mL, the MIC ([7]; isolate 49, M. smegmatis group, M. goodii) was no more than 0.12 µg/mL and the MIC ([7]; isolate 50, M. smegmatis group, M. wolinskyi) was 1 µg/mL (≈ 2.25 µM). For the same molecule, the MIC ([8]; isolate 18, M. chelonae) was greater than 8 µg/mL, the MIC ([8]; isolate 19, M. chelonae) was greater than 8 µg/mL and the MIC ([8]; isolate 20, M. chelonae) was greater than 8 µg/mL. For the same molecule, the MIC ([8]; isolate 21, M. chelonae) was greater than 8 µg/mL, the MIC ([8]; isolate 22, M. chelonae) was greater than 8 µg/mL and the MIC ([9]; isolate 1, M. abscessus complex, erm gene type MAB30) was greater than 8 µg/mL. The MIC ([9]; isolate 2, M. abscessus complex, erm gene type MAB30) was greater than 8 µg/mL, the MIC ([9]; isolate 3, M. abscessus complex, erm gene type MAB30) was greater than 8 µg/mL and the MIC ([9]; isolate 4, M. abscessus complex, erm gene type massiliense) was greater than 8 µg/mL. It also gave an MIC ([9]; isolate 5, M. abscessus complex, erm gene type massiliense/subsp. abs hybrid) greater than 8 µg/mL, an MIC ([9]; isolate 6, M. abscessus complex, erm gene type Type 1 abscessus) greater than 8 µg/mL and an MIC ([9]; isolate 7, M. abscessus complex, erm gene type Type 1 abscessus) greater than 8 µg/mL. For the same molecule, the MIC ([9]; isolate 8, M. abscessus complex, erm gene type Type 1 abscessus) was greater than 8 µg/mL, the MIC ([9]; isolate 9, M. abscessus complex, erm gene type Type 1 abscessus) was greater than 8 µg/mL and the MIC ([9]; isolate 10, M. abscessus complex, erm gene type Type 1 abscessus) was greater than 8 µg/mL. It also gave an MIC ([9]; isolate 11, M. abscessus complex, erm gene type Type 6 abscessus) greater than 8 µg/mL, an MIC ([9]; isolate 12, M. abscessus complex, erm gene type Type 6 abscessus) greater than 8 µg/mL and an MIC ([9]; isolate 13, M. abscessus complex, erm gene type Type 6 abscessus) greater than 8 µg/mL. For the same molecule, the MIC ([9]; isolate 14, M. abscessus complex, erm gene type Type 6 abscessus) was 8 µg/mL (≈ 18 µM), the MIC ([9]; isolate 15, M. abscessus complex, erm gene type Type 7 abscessus) was greater than 8 µg/mL and the MIC ([9]; isolate 16, M. abscessus complex, erm gene type Type 7 abscessus) was greater than 8 µg/mL. For the same molecule, the MIC ([9]; isolate 17, M. abscessus complex, erm gene type Type 8 abscessus) was greater than 8 µg/mL, the MIC ([10]; isolate 39, M. mucogenicum group, M. mucogenicum) was 0.25 µg/mL (≈ 0.563 µM) and the MIC ([10]; isolate 40, M. mucogenicum group, M. mucogenicum) was no more than 0.12 µg/mL. It also gave an MIC ([10]; isolate 41, M. mucogenicum group, M. mucogenicum) of no more than 0.12 µg/mL, an MIC ([10]; isolate 42, M. mucogenicum group, M. mucogenicum) of no more than 0.12 µg/mL and an MIC ([10]; isolate 43, M. mucogenicum group, M. phocaicum) of no more than 0.12 µg/mL. It also gave an MIC ([10]; isolate 44, M. mucogenicum group, M. phocaicum) greater than 8 µg/mL, an MIC ([10]; isolate 45, M. mucogenicum group, M. phocaicum) greater than 8 µg/mL and an MIC ([10]; isolate 46, M. mucogenicum group, M. phocaicum) greater than 8 µg/mL. It also gave an MIC ([10]; isolate 47, M. mucogenicum group, M. phocaicum) of 0.25 µg/mL (≈ 0.563 µM), an MIC ([10]; isolate 48, M. mucogenicum group, M. phocaicum) of 4 µg/mL (≈ 9 µM) and an MIC50 [11] greater than 8 µg/mL. The MIC90 [11] was greater than 8 µg/mL.
